Read-outs that look alike come from different tables or passages of the source.
Assays:
[1] = molecular target: FAD-binding domain of human CRY1 protein (hCRY1) (Homo sapiens (Human), UniProt Q16526); experiment: Thermal shift binding assay (differential scanning fluorimetry); conditions: purified hCRY1 FADBD, Sypro-Orange
Protocol: Binding of compounds to the isolated FAD-binding domain of human CRY1 protein (hCRY1) was determined using a differential scanning fluorimetry (‘thermal shift’) assay (Pantoliano et al. (2001) J Biomol Screening 6, 429; Niesen et al. (2007) Nature Protocols 2, 2212). The FAD-binding domain of hCRY1 (amino acid residues 1-494) with a C-terminal Myc-DDK tag (FADBD), was produced by transient transfection of HEK293T cells (Catalog # CRL-3216, American Type Culture Collection) and purified by anti-FLAG affinity chromatography (Catalog # A2220, Sigma-Aldrich). FADBD (0.5 μg per well) was incubated with dilutions of compounds in DMSO (5% DMSO final concentration in reaction) in 17.5 μl Tris-buffered saline (TBS) for 10 minutes on ice, then 2.5 μl of 8× Sypro-Orange Dye (Life Technologies) was added to each well. Triplicate wells were assayed for each compound concentration. The melting temperatures were measured in an ABI7500 quantitative PCR instrument using the melt curve mode with a thermal profile of 2 minutes at 25° C., followed by a ramp rate of 1° C./minute up to 99° C. The melting temperature for each well was determined from the first derivative of the melt curve. The change in melting temperature (ΔTm) was obtained by subtraction of the melting temperature of the FADBD in 5% DMSO alone.

[2] = Increasing dosages of Compound 72 for 7 days in db/db mice; assay type: in vivo, mouse; conditions: male, mouse, oral, around 8 hours after last dose
Source text: (§1) Significance was accepted when p<0.05.

[3] = tested on: db/db mouse model of type II diabetes; experiment: as above; assay type: in vivo
Source text: as §1

[4] = tested on: cortisone-induced insulin resistance in Sprague Dawley rats; experiment: Cortisone induced insulin resistance in rats; assay type: in vivo, rat; conditions: cortisone 30 mg/kg sc + 50 mg/kg po
Protocol: Animals were dosed with cortisone (30 mg/kg sc qd) in combination with test compounds for 6 days and then terminated 27 hours after the final dose of cortisone. A reference standard (Mifepristone) was also included. Cortisone 21-acetate (Sigma C-3130) was supplied by RenaSci and administered using a dose volume of 5 ml/kg via the subcutaneous route as a fine suspension in 1% methylcellulose. […] Mifepristone (Sigma M8046) was provided by RenaSci.
Glucose and insulin determinations were performed on plasma samples obtained from a tail vein bleed taken after a 12 h fast, approximately 27 h after the last cortisone dose. Animals were then terminated and a terminal (cardiac) blood sample taken from which plasma was prepared.
Thirty four male Sprague Dawley rats (weight range 200-250 g) were ordered from Charles River, Margate, Kent, UK. […] Subsequently, animals underwent a 3 day baseline period during which they were dosed once daily with vehicle at t=0 h (07:00). […] Body weight was recorded immediately before dosing began at 07:00 (t=0 h).
On Day 6 of dosing rats were fasted for 12 h beginning at 22:30 (timed to coincide with the Day 7 termination). […] At 10:30 on Day 7, 27 h after the final dose of cortisone, a blood sample (300 μl) was taken from the lateral tail vein into tubes containing EDTA (Sarstedt 16.444). The blood was centrifuged and resultant plasma aliquot stored at −75° C. The animals were euthanized by CO2 asphyxiation followed by cervical dislocation. Terminal blood (approximately 10 ml) was collected by cardiac puncture into tubes containing EDTA (Sarstedt 5 ml 32.332) and then centrifuged and plasma stored at −75° C. The tail vein plasma was analyzed for glucose (n=2) using a commercial clinical reagent (Thermoelectron Infinity glucose reagent (TR15421) and for insulin (n=1) using the Mercodia ultrasensitive rat insulin rat ELISA (10-1251-10).
Plasma glucose and insulin were analyzed by robust regression or general linear model with treatment as a factor and bleeding order and baseline body weight as covariates. A log transformation was used if appropriate. Appropriate multiple comparison tests (two-tailed) were used to determine significant differences from the vehicle group and from the Cortisone group. P<0.05 was considered to be statistically significant.

[5] = Pharmacokinetic analysis in SD rats (plasma, LC/MS/MS); assay type: in vivo, rat; conditions: 50 mg/kg P.O.; for Cmax: plasma, 50 mg/kg
Protocol: Male SD rats (weighing 250-300 g, Charles River Laboratories) were used for the experiment with n=4 rats for each experimental group. […] Blood was collected at the following time points after administration: 15, 30, 60, 90 minutes, 3, 6, 12 and 24 hours. A pre-dose sample was also collected. Animals were cannulated by technical staff at Charles River, prior to delivery at Reset. Whole blood (0.3 ml) was collected from a cannula in the right common jugular vein at each time-point. The whole blood was transferred to an EDTA tube, and then centrifuged at 5400 rpm for 5 minutes at 4° C. The resultant plasma was frozen using dry ice and then stored at −80° C. until ready for assay. 0.9% Sodium Chloride (0.3 ml) was administered for fluid replenishment after each blood draw. 0.1 ml of Sodium Heparin (500 IU/ml) was used as a lock solution after the 12 hr time-point. Samples were assayed as described above.

Sequence of FAD-binding domain of human CRY1 protein (hCRY1) (Q16526 1-494): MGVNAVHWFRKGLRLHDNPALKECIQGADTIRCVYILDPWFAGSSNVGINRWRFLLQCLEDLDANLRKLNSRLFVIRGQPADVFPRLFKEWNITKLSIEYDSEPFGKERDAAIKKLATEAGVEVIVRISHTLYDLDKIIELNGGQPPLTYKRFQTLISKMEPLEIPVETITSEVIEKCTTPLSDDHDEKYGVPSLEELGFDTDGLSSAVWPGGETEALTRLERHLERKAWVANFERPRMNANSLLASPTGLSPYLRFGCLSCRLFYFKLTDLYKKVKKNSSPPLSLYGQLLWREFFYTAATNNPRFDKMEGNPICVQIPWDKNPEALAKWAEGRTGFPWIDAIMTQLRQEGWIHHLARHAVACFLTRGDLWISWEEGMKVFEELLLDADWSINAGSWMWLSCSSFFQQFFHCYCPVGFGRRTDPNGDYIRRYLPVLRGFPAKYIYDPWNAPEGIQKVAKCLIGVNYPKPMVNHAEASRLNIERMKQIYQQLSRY

O=C1NCCN1CC(O)Cn1c2ccc(F)cc2c2cc(F)ccc21 (stereo not drawn) [Compound 72, 1-(3-(3,6-difluoro-9H-carbazol-9-yl)-2-hydroxypropyl)imidazolidin-2-one]
change in melting temperature (ΔTm) [1]: dose-dependent increase
concentration at 8 h ([2]; liver, 10 mg/kg, read-out: compound level in liver): 120 nM
concentration at 8 h ([2]; liver, 50 mg/kg, read-out: compound level in liver): 780 nM
concentration at 8 h ([2]; liver, 100 mg/kg, read-out: compound level in liver): 1810 nM
concentration at 8 h ([2]; plasma, 10 mg/kg, read-out: compound level in plasma): 90 nM
concentration at 8 h ([2]; plasma, 50 mg/kg, read-out: compound level in plasma): 570 nM
concentration at 8 h ([2]; plasma, 100 mg/kg, read-out: compound level in plasma): 1220 nM
HOMA-IR ([3]; 10 mg/kg QD PO 7 days): 172.7+/−16.61 units
fasting blood glucose ([3]; 10 mg/kg QD PO 7 days): 503.5 ± 49.68 mg/dL
glucose AUC from OGTT ([3]; 10 mg/kg QD PO 7 days): 39771+/−4244
HOMA-IR ([3]; 50 mg/kg QD PO 7 days): 149.2+/−16.49 units
fasting blood glucose ([3]; 50 mg/kg QD PO 7 days): 402.8 ± 25.25 mg/dL
glucose AUC from OGTT ([3]; 50 mg/kg QD PO 7 days): 35527+/−3215
HOMA-IR ([3]; 100 mg/kg QD PO 7 days): 111.9+/−9.02 units
fasting blood glucose ([3]; 100 mg/kg QD PO 7 days): 420.7 ± 26.44 mg/dL
glucose AUC from OGTT ([3]; 100 mg/kg QD PO 7 days): 28499+/−3079
plasma insulin at t=0 ([3]; 100 mg/kg QD PO 7 days): 4.63 ± 0.17 ng/mL
reduction of HOMA-IR compared to vehicle control ([3]; 100 mg/kg QD PO 7 days): 34%
HOMA-IR ([4]; insulin resistant rats): 56.94+/−11.18 units
fasted plasma glucose ([4]; rats): 8.55 ± 0.3 mM
fasted plasma insulin ([4]; rats): 5.24 ± 1.1 ng/mL
Tmax ([5]; male, SD, po, rat plasma): 1.7 h
half-life ([5]; male, SD, po, rat plasma, read-out: Elimination T1/2 (converted)): 1.87 h
MRT last ([5]; male, SD, po, rat plasma, read-out: MRT (0-last, hr)): 4.94 h
Cmax ([5]; male, SD, rat, po, rat plasma, read-out: Cmax): 7100 ng/mL
Cmax ([5]; male, SD, rat, po, rat, read-out: Cmax (plasma)): 7100 ng/mL
Cmax ([5]; male, SD, rat, po, rat, unbound, read-out: Cmax UB (plasma)): 277 ng/mL
% AUC extrapolated ([5]; rat plasma): 3.3%
AUC (total; ng · hr/mL) ([5]; rat plasma): 57952 ng·h/mL
Unbound Plasma AUC (0-last) ([5]; rat): 2259

— patent publication US10214507B2, “Carbazole-containing amides, carbamates, and ureas as cryptochrome modulators” (Reset Therapeutics, Inc., priority 2014, dated 2019)
